From paper PMC8330742, “New benzothieno[2,3-c]pyridines as non-steroidal CYP17 inhibitors: design, synthesis, anticancer screening, apoptosis induction, and in silico ADME profile studies” (Journal of Enzyme Inhibition and Medicinal Chemistry, 2021)

Legend:
CCRF-CEM = experiment: NCI-60 SRB screen; format: cell-based; conditions: Homo sapiens, single dose 10^−5 M, Leukaemia, read-out: Growth inhibition (%)
HL-60(TB) = experiment: NCI-60 SRB screen; format: cell-based, human; conditions: Homo sapiens; single dose 10^−5 M; HL-60(TB), Leukaemia; read-out: Growth inhibition (%)
K-562 = experiment: NCI-60 SRB screen; format: cell-based, human; conditions: Homo sapiens, K562; single dose 10^−5 M; K-562, Leukaemia; read-out: Growth inhibition (%)
MOLT-4 = experiment: NCI-60 SRB screen; format: cell-based; conditions: Homo sapiens; single dose 10^−5 M; MOLT-4, Leukaemia; read-out: Growth inhibition (%)
SR = experiment: NCI-60 SRB screen; format: cell-based; conditions: Homo sapiens, single dose 10^−5 M, Leukaemia, read-out: Growth inhibition (%)
A549/ATCC = experiment: NCI-60 SRB screen; format: cell-based, human; conditions: Homo sapiens, single dose 10^−5 M, Non-small cell lung carcinoma, read-out: Growth inhibition (%)
EKVX = experiment: NCI-60 SRB screen; format: cell-based, human; conditions: Homo sapiens, single dose 10^−5 M, Non-small cell lung carcinoma, read-out: Growth inhibition (%)
HOP-62 = experiment: NCI-60 SRB screen; format: cell-based, human; conditions: Homo sapiens; single dose 10^−5 M; HOP-62, Non-small cell lung carcinoma; read-out: Growth inhibition (%)
HOP-92 = experiment: NCI-60 SRB screen; format: cell-based, human; conditions: Homo sapiens; single dose 10^−5 M; HOP-92, Non-small cell lung carcinoma; read-out: Growth inhibition (%)
NCI-H226 = experiment: NCI-60 SRB screen; format: cell-based, human; conditions: Homo sapiens; single dose 10^−5 M; NCI-H226, Non-small cell lung carcinoma; read-out: Growth inhibition (%)
NCI-H23 = experiment: NCI-60 SRB screen; format: cell-based, human; conditions: Homo sapiens; single dose 10^−5 M; NCI-H23, Non-small cell lung carcinoma; read-out: Growth inhibition (%)
NCI-H322M = experiment: NCI-60 SRB screen; format: cell-based, human; conditions: Homo sapiens, single dose 10^−5 M, Non-small cell lung carcinoma, read-out: Growth inhibition (%)
NCI-H460 = experiment: NCI-60 SRB screen; format: cell-based, human; conditions: Homo sapiens; single dose 10^−5 M; NCI-H460, Non-small cell lung carcinoma; read-out: Growth inhibition (%)
NCI-H522 = experiment: NCI-60 SRB screen; format: cell-based, human; conditions: Homo sapiens; single dose 10^−5 M; NCI-H522, Non-small cell lung carcinoma; read-out: Growth inhibition (%)
COLO 205 = experiment: NCI-60 SRB screen; format: cell-based, human; conditions: Homo sapiens; single dose 10^−5 M; COLO 205, Colon cancer; read-out: Growth inhibition (%)
HCC-2998 = experiment: NCI-60 SRB screen; format: cell-based, human; conditions: Homo sapiens; single dose 10^−5 M; HCC-2998, Colon cancer; read-out: Growth inhibition (%)
HCT-116 = experiment: NCI-60 SRB screen; format: cell-based, human; conditions: Homo sapiens; single dose 10^−5 M; HCT-116, Colon cancer; read-out: Growth inhibition (%)
HCT-15 = experiment: NCI-60 SRB screen; format: cell-based, human; conditions: Homo sapiens; single dose 10^−5 M; HCT-15, Colon cancer; read-out: Growth inhibition (%)
KM12 = experiment: NCI-60 SRB screen; format: cell-based, human; conditions: Homo sapiens; single dose 10^−5 M; KM12, Colon cancer; read-out: Growth inhibition (%)
SW-620 = experiment: NCI-60 SRB screen; format: cell-based; conditions: Homo sapiens; single dose 10^−5 M; SW-620, Colon cancer; read-out: Growth inhibition (%)
SF-268 = experiment: NCI-60 SRB screen; format: cell-based, human; conditions: Homo sapiens; single dose 10^−5 M; SF-268, CNS cancer; read-out: Growth inhibition (%)
SF-295 = experiment: NCI-60 SRB screen; format: cell-based, human; conditions: Homo sapiens; single dose 10^−5 M; SF-295, CNS cancer; read-out: Growth inhibition (%)
LOX IMVI = experiment: NCI-60 SRB screen; format: cell-based, human; conditions: Homo sapiens, single dose 10^−5 M, Melanoma, read-out: Growth inhibition (%)
M14 = experiment: NCI-60 SRB screen; format: cell-based, human; conditions: Homo sapiens; single dose 10^−5 M; M14, Melanoma; read-out: Growth inhibition (%)
MDA-MB-435 = experiment: NCI-60 SRB screen; format: cell-based; conditions: Homo sapiens, MDA-MB-435, read-out: Growth inhibition (%)
SK-MEL-2 = experiment: NCI-60 SRB screen; format: cell-based, human; conditions: Homo sapiens; single dose 10^−5 M; SK-MEL-2, Melanoma; read-out: Growth inhibition (%)
SK-MEL-28 = experiment: NCI-60 SRB screen; format: cell-based; conditions: Homo sapiens; single dose 10^−5 M; SK-MEL-28, Melanoma; read-out: Growth inhibition (%)
SK-MEL-5 = experiment: NCI-60 SRB screen; format: cell-based, human; conditions: Homo sapiens; single dose 10^−5 M; SK-MEL-5, Melanoma; read-out: Growth inhibition (%)
UACC-257 = experiment: NCI-60 SRB screen; format: cell-based, human; conditions: Homo sapiens; single dose 10^−5 M; UACC-257, Melanoma; read-out: Growth inhibition (%)
UACC-62 = experiment: NCI-60 SRB screen; format: cell-based, human; conditions: Homo sapiens; single dose 10^−5 M; UACC-62, Melanoma; read-out: Growth inhibition (%)
IGROV1 = experiment: NCI-60 SRB screen; format: cell-based, human; conditions: Homo sapiens, IGROV-1; single dose 10^−5 M; IGROV1, Ovarian cancer; read-out: Growth inhibition (%)
OVCAR-3 = experiment: NCI-60 SRB screen; format: cell-based, human; conditions: Homo sapiens; single dose 10^−5 M; OVCAR-3, Ovarian cancer; read-out: Growth inhibition (%)
OVCAR-4 = experiment: NCI-60 SRB screen; format: cell-based, human; conditions: Homo sapiens; single dose 10^−5 M; OVCAR-4, Ovarian cancer; read-out: Growth inhibition (%)
OVCAR-8 = experiment: NCI-60 SRB screen; format: cell-based, human; conditions: Homo sapiens; single dose 10^−5 M; OVCAR-8, Ovarian cancer; read-out: Growth inhibition (%)
NCI/ADR-RES = experiment: NCI-60 SRB screen; format: cell-based, human; conditions: Homo sapiens, single dose 10^−5 M, Ovarian cancer, read-out: Growth inhibition (%)
SK-OV-3 = experiment: NCI-60 SRB screen; format: cell-based, human; conditions: Homo sapiens; single dose 10^−5 M; SK-OV-3, Ovarian cancer; read-out: Growth inhibition (%)
786-0 = experiment: NCI-60 SRB screen; format: cell-based; conditions: Homo sapiens; single dose 10^−5 M; 786-0, Renal cancer; read-out: Growth inhibition (%)
ACHN = experiment: NCI-60 SRB screen; format: cell-based; conditions: Homo sapiens, single dose 10^−5 M, Renal cancer, read-out: Growth inhibition (%)
CAKI-1 = experiment: NCI-60 SRB screen; format: cell-based, human; conditions: Homo sapiens; single dose 10^−5 M; CAKI-1, Renal cancer; read-out: Growth inhibition (%)
RXF 393 = experiment: NCI-60 SRB screen; format: cell-based, human; conditions: Homo sapiens; single dose 10^−5 M; RXF 393, Renal cancer; read-out: Growth inhibition (%)
SN12C = experiment: NCI-60 SRB screen; format: cell-based, human; conditions: Homo sapiens, SN12C; single dose 10^−5 M; SN 12 C, Renal cancer; read-out: Growth inhibition (%)
TK-10 = experiment: NCI-60 SRB screen; format: cell-based, human; conditions: Homo sapiens; single dose 10^−5 M; TK-10, Renal cancer; read-out: Growth inhibition (%)
UO-31 = experiment: NCI-60 SRB screen; format: cell-based, human; conditions: Homo sapiens; single dose 10^−5 M; UO-31, Renal cancer; read-out: Growth inhibition (%)
[1] = tested on: panel of 60 cancer cell lines; experiment: NCI-60 SRB screen, mean or range over the panel; format: cell-based, human; conditions: Homo sapiens; mean over the cell lines; single dose 10^−5 M; read-out: Mean growth inhibition (%)

CCN1CCN(C2=C(C#N)c3c(sc4c(F)cccc34)C(c3cccc([N+](=O)[O-])c3)N2)CC1 (stereo not shown) [Compound 8d, 4-Cyano-3-(4-ethylpiperazin-1-yl)-8-fluoro-1-(3-nitrophenyl)-1,2-dihydro [1]benzothieno[2,3-c]pyridine]
inhibition at 10 µM (CCRF-CEM): -0.37%
inhibition at 10 µM (HL-60(TB)): -15.6%
inhibition at 10 µM (K-562): 4.11%
inhibition at 10 µM (MOLT-4): 8.62%
inhibition at 10 µM (SR): 11.8%
inhibition at 10 µM (A549/ATCC): -2.72%
inhibition at 10 µM (EKVX): 12.5%
inhibition at 10 µM (HOP-62): 16.1%
inhibition at 10 µM (HOP-92): 18.9%
inhibition at 10 µM (NCI-H226): 15.7%
inhibition at 10 µM (NCI-H23): 3.9%
inhibition at 10 µM (NCI-H322M): 1.85%
inhibition at 10 µM (NCI-H460): -1.12%
inhibition at 10 µM (NCI-H522): 4.68%
inhibition at 10 µM (COLO 205): -5.97%
inhibition at 10 µM (HCC-2998): -12.2%
inhibition at 10 µM (HCT-116): 1.31%
inhibition at 10 µM (HCT-15): -6.34%
inhibition at 10 µM (KM12): -0.49%
inhibition at 10 µM (SW-620): 3.43%
inhibition at 10 µM (SF-268): 4.87%
inhibition at 10 µM (SF-295): -1.19%
inhibition at 10 µM (LOX IMVI): 4.73%
inhibition at 10 µM (M14): 4.65%
inhibition at 10 µM (MDA-MB-435): -7.84%
inhibition at 10 µM (SK-MEL-2): 1.77%
inhibition at 10 µM (SK-MEL-28): -15.8%
inhibition at 10 µM (SK-MEL-5): -10.7%
inhibition at 10 µM (UACC-257): -23.7%
inhibition at 10 µM (UACC-62): 6.81%
inhibition at 10 µM (IGROV1): 23.7%
inhibition at 10 µM (OVCAR-3): -2.65%
inhibition at 10 µM (OVCAR-4): -0.52%
inhibition at 10 µM (OVCAR-8): -1.56%
inhibition at 10 µM (NCI/ADR-RES): -4.88%
inhibition at 10 µM (SK-OV-3): 11.5%
inhibition at 10 µM (786-0): -9.68%
inhibition at 10 µM (ACHN): 9.28%
inhibition at 10 µM (CAKI-1): 25.2%
inhibition at 10 µM (RXF 393): -3.67%
inhibition at 10 µM (SN12C): 1.95%
inhibition at 10 µM (TK-10): -37%
inhibition at 10 µM (UO-31): 33.5%
inhibition at 10 µM [1]: 1.33%

N#CC1=C(N2CCOCC2)NC(c2cccc([N+](=O)[O-])c2)c2sc3c(F)cccc3c21 (stereo not shown) [Compound 8e, 4-Cyano-3-(4-morpholino)-8-fluoro-1-(3-nitrophenyl)-1,2-dihydro [1]benzothieno[2,3-c]pyridine]
inhibition at 10 µM (CCRF-CEM): 6.67%
inhibition at 10 µM (HL-60(TB)): -16.5%
inhibition at 10 µM (K-562): 9.66%
inhibition at 10 µM (MOLT-4): 5.54%
inhibition at 10 µM (SR): 9.91%
inhibition at 10 µM (A549/ATCC): 0.1%
inhibition at 10 µM (EKVX): 9.9%
inhibition at 10 µM (HOP-62): 18%
inhibition at 10 µM (HOP-92): 11.8%
inhibition at 10 µM (NCI-H226): 10.4%
inhibition at 10 µM (NCI-H23): 2.35%
inhibition at 10 µM (NCI-H322M): 3.9%
inhibition at 10 µM (NCI-H460): 2.61%
inhibition at 10 µM (NCI-H522): 8.18%
inhibition at 10 µM (COLO 205): -17.4%
inhibition at 10 µM (HCC-2998): -8.91%
inhibition at 10 µM (HCT-116): 8.86%
inhibition at 10 µM (HCT-15): -6.78%
inhibition at 10 µM (KM12): 0.52%
inhibition at 10 µM (SW-620): 5.32%
inhibition at 10 µM (SF-268): 7.51%
inhibition at 10 µM (SF-295): -6.46%
inhibition at 10 µM (LOX IMVI): 3.9%
inhibition at 10 µM (M14): -1.97%
inhibition at 10 µM (MDA-MB-435): -7.7%
inhibition at 10 µM (SK-MEL-2): 0.38%
inhibition at 10 µM (SK-MEL-28): -10.6%
inhibition at 10 µM (SK-MEL-5): -14.6%
inhibition at 10 µM (UACC-257): -6.7%
inhibition at 10 µM (UACC-62): 6.7%
inhibition at 10 µM (IGROV1): 25.4%
inhibition at 10 µM (OVCAR-3): 0.17%
inhibition at 10 µM (OVCAR-4): -2.02%
inhibition at 10 µM (OVCAR-8): 4.28%
inhibition at 10 µM (NCI/ADR-RES): -0.28%
inhibition at 10 µM (SK-OV-3): 7.67%
inhibition at 10 µM (786-0): -9.79%
inhibition at 10 µM (ACHN): 11.9%
inhibition at 10 µM (CAKI-1): 27.4%
inhibition at 10 µM (RXF 393): -2.93%
inhibition at 10 µM (SN12C): 6.28%
inhibition at 10 µM (TK-10): -59.3%
inhibition at 10 µM (UO-31): 38.4%
inhibition at 10 µM [1]: 1.3%
